Several values for one entry are separate records, joined by “and”; a condition that tells them apart may be missing. Equal entries are not always repeated. Inconclusive results and toxic doses are left out. Cut-off read from the data, not from the text of the source: active = T/C of 150% or more; inactive = T/C below 125%.
Tested on: L1210 leukemia ip in BDF1 mice, survival T/C
Test: NCI In Vivo Anticancer Drug Screen. Data for tumor model L1210 Leukemia (intraperitoneal) in B6D2F1 (BDF1) mice
Conditions: endpoint: mean survival time, higher = longer survival
Summary of the method: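 Tumor was transplanted into mice, which were then dosed with test compound or vehicle alone. Survival was recorded for each group, and the treated figure was expressed relative to the control figure.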

[1] = dose: 100.0 mg/kg/injection, schedule: Q04DX002 (ip), vehicle: Klucel (hydroxypropylcellulose) (HPC)
[2] = dose: 200.0 mg/kg/injection, schedule: Q04DX002 (ip), vehicle: Klucel (hydroxypropylcellulose) (HPC)
[3] = dose: 400.0 mg/kg/injection, schedule: Q04DX002 (ip), vehicle: Klucel (hydroxypropylcellulose) (HPC)
[4] = dose: 100.0 mg/kg/injection, schedule: Q04DX003 (ip), vehicle: saline with Tween-80
[5] = dose: 200.0 mg/kg/injection, schedule: Q04DX003 (ip), vehicle: saline with Tween-80
[6] = dose: 400.0 mg/kg/injection, schedule: Q04DX003 (ip), vehicle: saline with Tween-80
[7] = dose: 100.0 mg/kg/injection, schedule: Q04DX003 (ip), vehicle: saline
[8] = dose: 200.0 mg/kg/injection, schedule: Q04DX003 (ip), vehicle: saline
[9] = dose: 400.0 mg/kg/injection, schedule: Q04DX003 (ip), vehicle: saline
[10] = dose: 100.0 mg/kg/injection, schedule: Q04DX003 (ip), vehicle: Klucel (hydroxypropylcellulose) (HPC)
[11] = dose: 200.0 mg/kg/injection, schedule: Q04DX003 (ip), vehicle: Klucel (hydroxypropylcellulose) (HPC)
[12] = dose: 400.0 mg/kg/injection, schedule: Q04DX003 (ip), vehicle: Klucel (hydroxypropylcellulose) (HPC)
[13] = dose: 75.0 mg/kg/injection, schedule: Q01DX001 (ip), vehicle: other
[14] = dose: 75.0 mg/kg/injection, schedule: Q01DX009 (ip), vehicle: saline
[15] = dose: 150.0 mg/kg/injection, schedule: Q01DX009 (ip), vehicle: saline
[16] = dose: 25.0 mg/kg/injection, schedule: Q01DX009 (ip), vehicle: saline
[17] = dose: 50.0 mg/kg/injection, schedule: Q01DX009 (ip), vehicle: saline
[18] = dose: 100.0 mg/kg/injection, schedule: Q01DX009 (ip), vehicle: saline
[19] = dose: 200.0 mg/kg/injection, schedule: Q01DX009 (ip), vehicle: saline
[20] = dose: 100.0 mg/kg/injection, schedule: Q01DX009 (ip), vehicle: Klucel (hydroxypropylcellulose) (HPC)
[21] = dose: 200.0 mg/kg/injection, schedule: Q01DX009 (ip), vehicle: Klucel (hydroxypropylcellulose) (HPC)
[22] = dose: 400.0 mg/kg/injection, schedule: Q01DX009 (ip), vehicle: Klucel (hydroxypropylcellulose) (HPC)

Measured: T/C

O=C(Nc1ccccc1Cl)Oc1ccc(-c2ccccc2)cc1
inactive: [1] 95 % of control | [2] 95 % of control | [3] 106 % of control

CC(=O)Nc1ccc(NC(C)=O)cc1
inactive: [4] 95 % of control | [5] 91 % of control | [6] 95 % of control

COc1cc(OC)c(Br)c(OC)c1
inactive: dose: 100.0 mg/kg/injection, schedule: Q01DX009 (ip), vehicle: other 108 % of control | [7] 94 % of control | dose: 200.0 mg/kg/injection, schedule: Q01DX009 (ip), vehicle: other 93 % of control | [8] 96 % of control | dose: 400.0 mg/kg/injection, schedule: Q01DX009 (ip), vehicle: other 101 % of control | [9] 97 % of control

COC(=O)c1ccc(COc2ccc([N+](=O)[O-])cc2Cl)cc1
inactive: dose: 100.0 mg/kg/injection, schedule: Q01DX009 (ip), vehicle: saline sonified 94 % of control | [4] 96 % of control | dose: 200.0 mg/kg/injection, schedule: Q01DX009 (ip), vehicle: saline sonified 96 % of control | [5] 94 % of control | dose: 400.0 mg/kg/injection, schedule: Q01DX009 (ip), vehicle: saline sonified 94 % of control | [6] 96 % of control

CC(=O)Nc1cccc(Cc2ccccc2)c1
inactive: dose: 100.0 mg/kg/injection, schedule: Q01DX001 (ip), vehicle: Klucel (hydroxypropylcellulose) (HPC) 95 % of control | [10] 100 % of control | dose: 200.0 mg/kg/injection, schedule: Q01DX001 (ip), vehicle: Klucel (hydroxypropylcellulose) (HPC) 97 % of control | [11] 103 % of control | dose: 400.0 mg/kg/injection, schedule: Q01DX001 (ip), vehicle: Klucel (hydroxypropylcellulose) (HPC) 97 % of control | [12] 108 % of control

CC(=O)C1CCC2C3CC=C4CC(O)CCC4(C)C3CCC12C (stereo unspecified)
inactive: [1] 91 % of control | [10] 89 % of control | [2] 100 % of control | [11] 92 % of control | [3] 91 % of control

O=C(CC(O)(c1ccccc1)c1ccccc1)Nc1ccccn1
inactive: dose: 100.0 mg/kg/injection, schedule: Q01DX001 (ip), vehicle: other 89 % of control | dose: 200.0 mg/kg/injection, schedule: Q01DX001 (ip), vehicle: other 89 % of control

O=c1[nH]ncc2ccc([N+](=O)[O-])cc12
inactive: [13] 103 % of control | dose: 150.0 mg/kg/injection, schedule: Q01DX001 (ip), vehicle: other 101 % of control

Oc1cc(Cl)ccc1Cl
inactive: [14] 90 % of control | [7] 95 % of control | [15] 101 % of control | [8] 100 % of control | dose: 300.0 mg/kg/injection, schedule: Q01DX009 (ip), vehicle: saline 96 % of control | [9] 98 % of control

Nc1cccc(C(F)(F)F)c1
inactive: [16] 103 % of control | [17] 103 % of control | [18] 94 % of control and 88 % of control

CC(=O)OCC1OC(N2C(=O)/C(=C/c3ccc(Br)s3)SC2=S)C(OC(C)=O)C(OC(C)=O)C1OC(C)=O (stereo unspecified)
inactive: dose: 25.0 mg/kg/injection, schedule: Q01DX005 (ip), vehicle: other 94 % of control | dose: 50.0 mg/kg/injection, schedule: Q01DX005 (ip), vehicle: other 94 % of control | dose: 100.0 mg/kg/injection, schedule: Q01DX005 (ip), vehicle: other 94 % of control

C1CCC(CCCC(CCCC2CCCC2)CCCC2CCCC2)C1
inactive: dose: 100.0 mg/kg/injection, schedule: Q01DX001 (ip), vehicle: saline with Tween-80 93 % of control | dose: 200.0 mg/kg/injection, schedule: Q01DX001 (ip), vehicle: saline with Tween-80 93 % of control | dose: 400.0 mg/kg/injection, schedule: Q01DX001 (ip), vehicle: saline with Tween-80 89 % of control

Cc1ccc(SCc2c(COc3ccc(Cl)cc3)sc3ccc(Cl)cc23)cc1
inactive: dose: 100.0 mg/kg/injection, schedule: Q01DX009 (ip), vehicle: saline with Tween-80 102 % of control | dose: 200.0 mg/kg/injection, schedule: Q01DX009 (ip), vehicle: saline with Tween-80 119 % of control | dose: 400.0 mg/kg/injection, schedule: Q01DX009 (ip), vehicle: saline with Tween-80 97 % of control

Cc1nn(-c2ccccc2)c(N)c1C#N
inactive: [16] 100 % of control | [17] 97 % of control | [14] 98 % of control | [18] 103 % of control and 121 % of control | [15] 103 % of control | [19] 106 % of control

COc1ccc(NC(=O)Nc2ccc(F)cc2)c(OC)c1
inactive: [20] 91 % of control | [10] 100 % of control | [21] 100 % of control | [11] 91 % of control | [22] 96 % of control | [12] 100 % of control

O=c1cc(-c2ccccc2)oc2ccccc12
inactive: [20] 97 % of control | [21] 92 % of control | [22] 108 % of control

CN(C)/N=C/c1nccc2ccccc12
inactive: dose: 50.0 mg/kg/injection, schedule: Q01DX001 (ip), vehicle: saline 98 % of control | dose: 100.0 mg/kg/injection, schedule: Q01DX001 (ip), vehicle: saline 93 % of control | dose: 200.0 mg/kg/injection, schedule: Q01DX001 (ip), vehicle: saline 93 % of control

O=C(O)C1CC(Br)C2CC1C(=O)O2 (stereo unspecified)
inactive: [7] 91 % of control | [8] 105 % of control | [9] 97 % of control

COc1ccc2c(C(=O)CCC(=O)O)cccc2c1
inactive: [7] 104 % of control | [8] 95 % of control | [9] 106 % of control

Cc1ccc(S(=O)(=O)C2=CC(=O)c3ccccc3C2=O)cc1
inactive: [13] 88 % of control

CCc1ccc(N=Nc2c(F)c(F)c(N(C)C)c(F)c2F)cc1
inactive: dose: 100.0 mg/kg/injection, schedule: Q01DX001 (ip), vehicle: carboxymethylcellulose (CMC) 102 % of control | dose: 200.0 mg/kg/injection, schedule: Q01DX001 (ip), vehicle: carboxymethylcellulose (CMC) 100 % of control | dose: 400.0 mg/kg/injection, schedule: Q01DX001 (ip), vehicle: carboxymethylcellulose (CMC) 100 % of control

CCOc1cc2ccc3c4cc(OC)c(OC)cc4c[n+](C)c3c2cc1OCC
inactive: dose: 100.0 mg/kg/injection, schedule: Q04DX002 (ip), vehicle: saline with Tween-80 98 % of control

CC(=O)SCC(C)SC(C)=O (stereo unspecified)
inactive: dose: 12.5 mg/kg/injection, schedule: Q04DX002 (ip), vehicle: saline with Tween-80 93 % of control | dose: 25.0 mg/kg/injection, schedule: Q04DX002 (ip), vehicle: saline with Tween-80 98 % of control | dose: 50.0 mg/kg/injection, schedule: Q04DX002 (ip), vehicle: saline with Tween-80 93 % of control

Cc1nccn1-c1ccc(Cl)cc1N=Cc1ccc(N(CCCl)CCCl)cc1
inactive: [1] 98 % of control | [2] 102 % of control | [3] 102 % of control

CSC(=N)N(C)Cc1ccccc1
inactive: dose: 9.37 mg/kg/injection, schedule: Q01DX009 (ip), vehicle: saline 103 % of control | dose: 18.75 mg/kg/injection, schedule: Q01DX009 (ip), vehicle: saline 111 % of control | dose: 18.75 mg/kg/injection, schedule: Q04DX003 (ip), vehicle: saline 102 % of control | dose: 37.5 mg/kg/injection, schedule: Q01DX009 (ip), vehicle: saline 108 % of control | dose: 37.5 mg/kg/injection, schedule: Q04DX003 (ip), vehicle: saline 96 % of control | dose: 75.0 mg/kg/injection, schedule: Q01DX001 (ip), vehicle: saline 102 % of control | dose: 75.0 mg/kg/injection, schedule: Q04DX003 (ip), vehicle: saline 88 % of control

O=S(=O)(O)c1ccccc1/C=N\N=C\c1ccccc1S(=O)(=O)O
inactive: [18] 107 % of control | [7] 107 % of control | [19] 112 % of control | [8] 107 % of control | dose: 265.0 mg/kg/injection, schedule: Q04DX003 (ip), vehicle: saline 107 % of control | dose: 400.0 mg/kg/injection, schedule: Q01DX009 (ip), vehicle: saline 105 % of control | [9] 104 % of control | dose: 600.0 mg/kg/injection, schedule: Q04DX003 (ip), vehicle: saline 93 % of control
